Like-named read-outs stand apart in the source and are kept apart here.
Tests used:
[1] = system: P. falciparum male gametocytes; test: P. falciparum Dual Gamete Formation Assay (PfDGFA), male readout (exflagellation); assay type: cell-based, Plasmodium falciparum NF54; conditions: for Selectivity Ratio M: HepG2 Tox50 versus male IC50; for Average inhibition male (%) / % inhibition male (individual replicates) R1 / % inhibition male (individual replicates) R4 / inhibition at 2 µM / % inhibition male (individual replicates) R3: 24h preincubation with gametocytes; for IC50: PfDGFA, 24 h incubation with gametocytes before induction, exflagellation readout, read-out: Male IC50; for HitlevelM: number of replicates with >50% inhibition in the male readout
In short: (§1)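 Male and female gamete formation were quantified by microscopy image analysis following 24 h incubation of mature NF54 gametocytes with compound and activation at 28°C with xanthurenic acid.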

[2] = system: HepG2 cells; test: HepG2 cytotoxicity counter-screen; conditions: cytotoxic activity against HepG2 cells
[3] = system: P. falciparum female gametocytes; test: P. falciparum Dual Gamete Formation Assay (PfDGFA), female readout (Pfs25-positive female gametes); assay type: cell-based, Plasmodium falciparum NF54; conditions: for Selectivity ratio F: HepG2 Tox50 versus female IC50; for Average inhibition female (%) / % inhibition female (individual replicates) R1 / % inhibition female (individual replicates) R3 / % inhibition female (individual replicates) R4 / inhibition at 2 µM: 24h preincubation with gametocytes; for IC50: PfDGFA, 24 h incubation with gametocytes before induction, female gamete readout, read-out: Female IC50; for HitlevelF: number of replicates with >50% inhibition in the female readout
In short: as §1

[4] = PfDGFA at 2µM, average of replicates
[5] = Plasmodium falciparum, PfDGFA at 2µM, average of replicates, read-out: Average inhibition male (%)
[6] = Plasmodium falciparum, PfDGFA at 2µM, replicate R1, read-out: % inhibition male (individual replicates) R1
[7] = Plasmodium falciparum, PfDGFA at 2µM, replicate R2, read-out: % inhibition male (individual replicates) R2
[8] = Plasmodium falciparum, PfDGFA at 2µM, replicate R3, read-out: % inhibition male (individual replicates) R3
[9] = Plasmodium falciparum, PfDGFA at 2µM, replicate R4, read-out: % inhibition male (individual replicates) R4
[10] = Plasmodium falciparum, PfDGFA at 2µM, average of replicates, read-out: Average inhibition female (%)
[11] = Plasmodium falciparum, PfDGFA at 2µM, replicate R1, read-out: % inhibition female (individual replicates) R1
[12] = Plasmodium falciparum, PfDGFA at 2µM, replicate R2, read-out: % inhibition female (individual replicates) R2
[13] = Plasmodium falciparum, PfDGFA at 2µM, replicate R3, read-out: % inhibition female (individual replicates) R3
[14] = Plasmodium falciparum, PfDGFA at 2µM, replicate R4, read-out: % inhibition female (individual replicates) R4

Q: COc1ccc(CNC2CCN(C)CC2)cc1-c1ccc(S(=O)(=O)NCc2ccccc2)c(F)c1.O=C(O)C(F)(F)F [TCMDC-132262] was tested. Which “Selectivity Ratio M” value [1] did it give?
A: 1.94

Q: And the “Average inhibition male (%)” value [1, 4]?
A: 74.3%

Q: And the “% inhibition male (individual replicates) R1” value ([1]; PfDGFA at 2µM, replicate R1)?
A: 68.8%

Q: What about the “% inhibition male (individual replicates) R4” value ([1]; PfDGFA at 2µM, replicate R4) of the same molecule?
A: 79.4%

Q: What about the IC50 [1] of the same molecule?
A: 1.85 µM

Q: And the HitlevelM ([1]; 2µM)?
A: 3

Q: And the Tox50 [2]?
A: 3.59 µM

Q: What about the “Selectivity ratio F” value [3] of the same molecule?
A: 0.84

Q: What about the “Average inhibition female (%)” value [3, 4] of the same molecule?
A: 25.6%

Q: And the “% inhibition female (individual replicates) R1” value ([3]; PfDGFA at 2µM, replicate R1)?
A: 21.9%

Q: What about the “% inhibition female (individual replicates) R3” value ([3]; PfDGFA at 2µM, replicate R3) of the same molecule?
A: 30.7%

Q: And the “% inhibition female (individual replicates) R4” value ([3]; PfDGFA at 2µM, replicate R4)?
A: 17.0%

Q: And the IC50 [3]?
A: 4.28 µM

Q: What about the HitlevelF ([3]; 2µM) of the same molecule?
A: 0

Q: For O=C(c1ccc(-c2cnc3[nH]cc(-c4ccc(C(=O)N5CCOCC5)cc4)c3c2)cc1)N1CCOCC1 [TCMDC-132781], which “Selectivity Ratio M” value [1] is on record?
A: 66.32

Q: And the inhibition at 2 µM [1, 5]?
A: 77%

Q: What about the inhibition at 2 µM [1, 6] of the same molecule?
A: 90.7%

Q: And the inhibition at 2 µM [1, 7]?
A: 89.1%

Q: What about the inhibition at 2 µM [1, 8] of the same molecule?
A: 77.8%

Q: And the inhibition at 2 µM [1, 9]?
A: 50.2%

Q: And the IC50 ([1]; Plasmodium falciparum)?
A: 0.44 µM

Q: And the HitlevelM ([1]; 2µM)?
A: 4

Q: And the Tox50 [2]?
A: 28.99 µM

Q: And the “Selectivity ratio F” value [3]?
A: 2.9

Q: And the inhibition at 2 µM [3, 10]?
A: 9.1%

Q: What about the inhibition at 2 µM [3, 11] of the same molecule?
A: 7.2%

Q: What about the inhibition at 2 µM [3, 12] of the same molecule?
A: 16.3%

Q: And the inhibition at 2 µM [3, 13]?
A: 1.6%

Q: What about the inhibition at 2 µM [3, 14] of the same molecule?
A: 11.4%

Q: And the IC50 ([3]; Plasmodium falciparum)?
A: > 10 µM

Q: And the HitlevelF ([3]; 2µM)?
A: 0

Q: How did the “Selectivity Ratio M” value [1] turn out when CNCCNCc1ccc(-c2ccc(-c3nc4cccc(C)c4[nH]3)cc2)cc1.O=C(O)C(F)(F)F [TCMDC-132837] was run?
A: 7.9

Q: What about the “Average inhibition male (%)” value [1, 4] of the same molecule?
A: 81.2%

Q: What about the “% inhibition male (individual replicates) R1” value ([1]; PfDGFA at 2µM, replicate R1) of the same molecule?
A: 79.2%

Q: What about the “% inhibition male (individual replicates) R3” value ([1]; PfDGFA at 2µM, replicate R3) of the same molecule?
A: 67.7%

Q: What about the “% inhibition male (individual replicates) R4” value ([1]; PfDGFA at 2µM, replicate R4) of the same molecule?
A: 94.2%

Q: And the IC50 [1]?
A: 1.67 µM

Q: What about the HitlevelM ([1]; 2µM) of the same molecule?
A: 4

Q: What about the Tox50 [2] of the same molecule?
A: 13.18 µM

Q: What about the “Selectivity ratio F” value [3] of the same molecule?
A: 1.52

Q: And the “Average inhibition female (%)” value [3, 4]?
A: 30.6%

Q: And the “% inhibition female (individual replicates) R1” value ([3]; PfDGFA at 2µM, replicate R1)?
A: 20.0%

Q: And the “% inhibition female (individual replicates) R3” value ([3]; PfDGFA at 2µM, replicate R3)?
A: 47.7%

Q: And the “% inhibition female (individual replicates) R4” value ([3]; PfDGFA at 2µM, replicate R4)?
A: 20.5%

Q: And the IC50 [3]?
A: 8.69 µM

Q: And the HitlevelF ([3]; 2µM)?
A: 0

Q: With CNCCNCc1ccc(-c2ccc(-c3nc4cc(C(F)(F)F)ccc4[nH]3)s2)cc1.O=C(O)C(F)(F)F [TCMDC-132838] as the molecule, how does the “Average inhibition male (%)” value ([1]; 2µM, average of replicates) read?
A: 96.4%

Q: And the “% inhibition male (individual replicates) R1” value ([1]; 2µM, replicate R1)?
A: 96.0%

Q: And the “% inhibition male (individual replicates) R3” value ([1]; 2µM, replicate R3)?
A: 93.3%

Q: And the “% inhibition male (individual replicates) R4” value ([1]; 2µM, replicate R4)?
A: 98.9%

Q: And the “Selectivity Ratio M” value [1]?
A: 9.9

Q: And the IC50 [1]?
A: 1.32 µM

Q: What about the Tox50 [2] of the same molecule?
A: 13.1 µM

Q: What about the “Average inhibition female (%)” value ([3]; 2µM, average of replicates) of the same molecule?
A: 23.9%

Q: What about the “% inhibition female (individual replicates) R1” value ([3]; 2µM, replicate R1) of the same molecule?
A: 24.8%

Q: What about the “% inhibition female (individual replicates) R3” value ([3]; 2µM, replicate R3) of the same molecule?
A: 17.6%

Q: What about the “% inhibition female (individual replicates) R4” value ([3]; 2µM, replicate R4) of the same molecule?
A: 33.8%

Q: What about the “Selectivity ratio F” value [3] of the same molecule?
A: 1.31

Q: For FC(F)(F)c1ccc2[nH]c(-c3ccc(-c4cccc(CNCCN5CCNCC5)c4)cc3)nc2c1.O=C(O)C(F)(F)F [TCMDC-132864], which “Selectivity Ratio M” value [1] is on record?
A: 12.52

Q: What about the inhibition at 2 µM [1, 5] of the same molecule?
A: 82.4%

Q: And the inhibition at 2 µM [1, 6]?
A: 79.2%

Q: And the inhibition at 2 µM [1, 7]?
A: 89.7%

Q: What about the inhibition at 2 µM [1, 8] of the same molecule?
A: 65.9%

Q: What about the inhibition at 2 µM [1, 9] of the same molecule?
A: 94.9%

Q: What about the IC50 ([1]; Plasmodium falciparum) of the same molecule?
A: 1.64 µM

Q: What about the HitlevelM ([1]; 2µM) of the same molecule?
A: 4

Q: And the Tox50 [2]?
A: 20.55 µM

Q: What about the “Selectivity ratio F” value [3] of the same molecule?
A: 3.99

Q: And the inhibition at 2 µM [3, 10]?
A: 20.5%

Q: What about the inhibition at 2 µM [3, 11] of the same molecule?
A: 25.8%

Q: And the inhibition at 2 µM [3, 12]?
A: 24.6%

Q: What about the inhibition at 2 µM [3, 13] of the same molecule?
A: -15.8%

Q: And the inhibition at 2 µM [3, 14]?
A: 47.4%

Q: And the IC50 ([3]; Plasmodium falciparum)?
A: 5.15 µM

Q: What about the HitlevelF ([3]; 2µM) of the same molecule?
A: 0

Reference: article PMC10584170, “Machine learning-based phenotypic imaging to characterise the targetable biology of Plasmodium falciparum male gametocytes for the development of transmission-blocking antimalarials” (PLOS Pathogens, 2023)
